Each molecule was assayed against T1, rat B1R (bradykinin receptor 1) (Rattus norvegicus, UniProt P97583) (assay: FLIPR Ca2+ assay (Fluo-4) on CHO K1 cells stably transfected with the B1R gene of the rat (rB1R cells): % inhibition at 10 μM / IC50, agonist Des-Arg9-bradykinin). Conditions: CHO-K1, rat B1R.
T1 construct: expressed in transfected cells; host or cells: CHO K1 cells
T1 sequence (P97583 1-337): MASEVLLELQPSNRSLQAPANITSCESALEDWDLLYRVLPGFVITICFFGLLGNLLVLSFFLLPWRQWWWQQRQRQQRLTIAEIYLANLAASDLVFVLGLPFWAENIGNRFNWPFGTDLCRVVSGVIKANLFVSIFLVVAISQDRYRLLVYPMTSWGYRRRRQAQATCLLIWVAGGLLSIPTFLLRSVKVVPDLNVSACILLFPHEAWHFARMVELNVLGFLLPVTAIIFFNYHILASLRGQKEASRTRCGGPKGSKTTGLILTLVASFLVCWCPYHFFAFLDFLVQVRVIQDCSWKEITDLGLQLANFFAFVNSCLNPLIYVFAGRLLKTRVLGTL
Format: cell-based
Method: The agonistic or antagonistic action of substances can be quantified on the bradykinin receptor 1 (B1R) of the human and rat species with ectopically expressing cell lines (CHO K1 cells) and with the aid of a Ca^2+-sensitive dyestuff (Fluo-4) in a fluorescent imaging plate reader (FLIPR). The figure in % activation is based on the Ca^2+ signal after addition of Lys-Des-Arg^9-bradykinin (0.5 nM) or Des-Arg^9-bradykinin (100 nM). Antagonists lead to a suppression of the Ca^2+ inflow after addition of the agonist. % inhibition compared with the maximum achievable inhibition is stated.
The agonistic or antagonistic action of substances can be determined on the bradykinin receptor 1 (B1R) of the human and rat species with the following assay. In accordance with this assay, the Ca^2+ inflow through the channel is quantified with the aid of a Ca^2+-sensitive dyestuff (type Fluo-4, Molecular Probes Europe BV, Leiden, Holland) in a fluorescent imaging plate reader (FLIPR, Molecular Devices, Sunnyvale, USA).
Chinese hamster ovary cells (CHO K1 cells) transfected stably with the human B1R gene (hB1R cells) or the B1R gene of the rat (rB1R cells) are used. For functional studies, these cells are plated out on black 96-well plates with a clear base (BD Biosciences, Heidelberg, Germany or Greiner, Frickenhausen, Germany) in a density of 20,000-35,000 cells/well. The cells are left overnight at 37° C. and 5% CO2 in culture medium (hB1R cells: Nutrient Mixture Ham's F12, Gibco Invitrogen GmbH, Karlsruhe, Germany or DMEM, Sigma-Aldrich, Taufkirchen, Germany; rB1R cells: D-MEM/F12, Gibco Invitrogen GmbH, Karlsruhe, Germany) with 10 vol. % FBS (foetal bovine serum, Gibco Invitrogen GmbH, Karlsruhe, Germany or PAN Biotech GmbH, Aidenbach, Germany). On the following day, the cells are loaded for 60 min at 37° C. with 2.13 μM Fluo-4 (Molecular Probes Europe BV, Leiden Holland) in HBSS buffer (Hank's buffered saline solution, Gibco Invitrogen GmbH, Karlsruhe, Germany) with 2.5 mM probenecid (Sigma-Aldrich, Taufkirchen, Germany) and 10 mM HEPES (Sigma-Aldrich, Taufkirchen, Germany). The plates are then washed 2× with HBSS buffer, and HBSS buffer which additionally contains 0.1% BSA (bovine serum albumin; Sigma-Aldrich, Taufkirchen, Germany), 5.6 mM glucose and 0.05% gelatine (Merck KGaA, Darmstadt, Germany) is added. After a further incubation of 20 minutes at room temperature, the plates are inserted into the FLIPR for the Ca^2+ measurement. Alternatively, the plates are washed with buffer A (15 mM HEPES, 80 mM NaCl, 5 mM KCl, 1.2 mM CaCl2, 0.7 mM MgSO4, 2 g/l glucose, 2.5 mM probenecid), buffer A is added and the plates are loaded with 2.5 μM Fluo-4 and 0.025% Pluronic F127 (Sigma-Aldrich, Taufkirchen, Germany). Thereafter, the cells are washed 2× with buffer A and incubated for 30 minutes at room temperature with buffer A, which additionally contains 0.05% BSA and 0.05% gelatine, and thereafter inserted into the FLIPR for the Ca^2+ measurement. The Ca^2+-dependent fluorescence is measured here before and after addition of substances (λex=488 nm, λem=540 nm). Quantification is by measurement of the highest fluorescence intensity (FC, fluorescence counts) over time.
The FLIPR protocol consists of 2 additions of substance. Test substances (10 μM) are first pipetted on to the cells and the Ca^2+ inflow is compared with the control (hB1R: Lys-Des-Arg^9-bradykinin>=50 nM; rB1R: Des-Arg^9-bradykinin 10 μM). This gives the result in % activation based on the Ca^2+ signal after addition of Lys-Des-Arg^9-bradykinin (>=50 nM) or Des-Arg^9-bradykinin (10 μM). After incubation for 10-20 minutes, Lys-Des-Arg^9-bradykinin (hB1R) or Des-Arg^9-bradykinin (rB1R) in the concentration of the EC80 is applied and the inflow of Ca^2+ is likewise determined. Antagonists lead to a suppression of the Ca^2+ inflow. % inhibition compared with the maximum achievable inhibition is calculated.
For determination of the IC50 value, the substances are added in various concentrations. […]

Compound | inhibition at 10 µM [%]
CC1(C)Cc2ccc(C(=O)N3CCC4(CC3)CCN(c3ccncc3)CC4)cc2C1NC(=O)c1cc(Cl)ccc1C(F)(F)F (stereo not drawn) [IND_CC-314, 5-Chloro-N-[2,2-dimethyl-6-(9-pyridin-4-yl-3,9-diazaspiro[5.5]undecane-3-carbonyl)-1,3-dihydro-inden-1-yl]-2-(trifluoromethyl)-benzamide] | 80
CC1(C)CC(NC(=O)c2cc(Cl)ccc2C(F)(F)F)c2cc(C(=O)N3CCC4(CC3)CCN(c3ccncc3)CC4)ccc21 (stereo not drawn) [IND_CC-315, 5-Chloro-N-[3,3-dimethyl-6-(3-pyridin-4-yl-3,9-diazaspiro[5.5]undecane-9-carbonyl)-1,2-dihydro-inden-1-yl]-2-(trifluoromethyl)-benzamide] | 101
Cc1ccc(C(=O)NC2c3cc(C(=O)N4CCC5(CC4)CCN(c4ccncc4)CC5)ccc3CC2(C)C)c(F)c1 (stereo not drawn) [IND_CC-317, N-[2,2-Dimethyl-6-(9-pyridin-4-yl-3,9-diazaspiro[5.5]undecane-3-carbonyl)-1,3-dihydro-inden-1-yl]-2-fluoro-4-methyl-benzamide] | 60
Cc1ccc(C(=O)NC2CC(C)(C)c3ccc(C(=O)N4CCC5(CC4)CCN(c4ccncc4)CC5)cc32)c(F)c1 (stereo not drawn) [IND_CC-318, N-[3,3-Dimethyl-6-(3-pyridin-4-yl-3,9-diazaspiro[5.5]undecane-9-carbonyl)-1,2-dihydro-inden-1-yl]-2-fluoro-4-methyl-benzamide] | 100
CN(C1CCc2ccc(C(=O)N3CCC4(CC3)CCN(c3ccncc3)CC4)cc21)S(=O)(=O)c1ccc(C(F)(F)F)cc1Cl (stereo not drawn) [IND_CC-320, 2-Chloro-N-methyl-N-[6-(9-pyridin-4-yl-3,9-diazaspiro[5.5]undecane-3-carbonyl)-2,3-dihydro-1H-inden-1-yl]-4-(trifluoromethyl)-benzenesulfonic acid amide] | 83
O=C(c1ccc2c(c1)C(NS(=O)(=O)c1c(Cl)cccc1Cl)CC2)N1CCC2(CC1)CCN(c1ccncc1)C2 (stereo not drawn) [IND_CC-323, 2,6-Dichloro-N-[6-(2-pyridin-4-yl-2,8-diazaspiro[4.5]decane-8-carbonyl)-2,3-dihydro-1H-inden-1-yl]-benzenesulfonic acid amide] | 100
CN(C1CCc2ccc(C(=O)N3CCC4(CC3)CCN(c3ccncc3)CC4)cc21)S(=O)(=O)c1ccccc1Cl (stereo not drawn) [IND_CC-325, 2-Chloro-N-methyl-N-[6-(9-pyridin-4-yl-3,9-diazaspiro[5.5]undecane-3-carbonyl)-2,3-dihydro-1H-inden-1-yl]-benzenesulfonic acid amide] | 102
Cc1cc(F)ccc1S(=O)(=O)N(C)C1CCc2ccc(C(=O)N3CCC4(CC3)CCN(c3ccncc3)CC4)cc21 (stereo not drawn) [IND_CC-326, 4-Fluoro-N,2-dimethyl-N-[6-(9-pyridin-4-yl-3,9-diazaspiro[5.5]undecane-3-carbonyl)-2,3-dihydro-1H-inden-1-yl]-benzenesulfonic acid amide] | 100
CN(C1CCc2ccc(C(=O)N3CCC4(CC3)CCN(c3ccncc3)CC4)cc21)S(=O)(=O)c1cccc(C(F)(F)F)c1 (stereo not drawn) [IND_CC-327, N-Methyl-N-[6-(9-pyridin-4-yl-3,9-diazaspiro[5.5]undecane-3-carbonyl)-2,3-dihydro-1H-inden-1-yl]-3-(trifluoromethyl)-benzenesulfonic acid amide] | 101
O=C(c1ccc2c(c1)C(NS(=O)(=O)c1cccc(C(F)(F)F)c1)CC2)N1CCC2(CC1)CCN(c1ccncc1)CC2 (stereo not drawn) [IND_CC-328, N-[6-(9-Pyridin-4-yl-3,9-diazaspiro[5.5]undecane-3-carbonyl)-2,3-dihydro-1H-inden-1-yl]-3-(trifluoromethyl)-benzenesulfonic acid amide] | 98
O=C(c1ccc2c(c1)C(NS(=O)(=O)c1cccc(C(F)(F)F)c1)CC2)N1CCC2(CC1)CCN(c1ccncc1)C2 (stereo not drawn) [IND_CC-329, N-[6-(2-Pyridin-4-yl-2,8-diazaspiro[4.5]decane-8-carbonyl)-2,3-dihydro-1H-inden-1-yl]-3-(trifluoromethyl)-benzenesulfonic acid amide] | 97
CC1(C)Cc2ccc(C(=O)N3CCC4(CC3)CCN(c3ccncc3)CC4)cc2C1NS(=O)(=O)c1ccc(C(F)(F)F)cc1Cl (stereo not drawn) [IND_CC-330, 2-Chloro-N-[2,2-dimethyl-6-(9-pyridin-4-yl-3,9-diazaspiro[5.5]undecane-3-carbonyl)-1,3-dihydro-inden-1-yl]-4-(trifluoromethyl)-benzenesulfonic acid amide] | 67

Results, then the molecule that gave them:

inhibition at 10 µM [%] | Compound
100 | O=C(NC1CCc2ccc(C(=O)N3CCC4(CCN(c5ccncc5)CC4)C3)cc21)c1cc(Cl)ccc1C(F)(F)F (stereo not drawn) [IND_CC-316, 5-Chloro-N-[6-(8-pyridin-4-yl-2,8-diazaspiro[4.5]decane-2-carbonyl)-2,3-dihydro-1H-inden-1-yl]-2-(trifluoromethyl)-benzamide]
102 | Cc1ccc(C(=O)NC2CCc3ccc(C(=O)N4CCC5(CCN(c6ccncc6)CC5)C4)cc32)c(F)c1 (stereo not drawn) [IND_CC-319, 2-Fluoro-4-methyl-N-[6-(8-pyridin-4-yl-2,8-diazaspiro[4.5]decane-2-carbonyl)-2,3-dihydro-1H-inden-1-yl]-benzamide]
95 | CN(C1CCc2ccc(C(=O)N3CCC4(CC3)CCN(c3ccncc3)CC4)cc21)S(=O)(=O)c1c(Cl)cccc1Cl (stereo not drawn) [IND_CC-321, 2,6-Dichloro-N-methyl-N-[6-(9-pyridin-4-yl-3,9-diazaspiro[5.5]undecane-3-carbonyl)-2,3-dihydro-1H-inden-1-yl]-benzenesulfonic acid amide]
102 | O=C(c1ccc2c(c1)C(NS(=O)(=O)c1c(Cl)cccc1Cl)CC2)N1CCC2(CC1)CCN(c1ccncc1)CC2 (stereo not drawn) [IND_CC-322, 2,6-Dichloro-N-[6-(9-pyridin-4-yl-3,9-diazaspiro[5.5]undecane-3-carbonyl)-2,3-dihydro-1H-inden-1-yl]-benzenesulfonic acid amide]
98 | CN(C1CCc2ccc(C(=O)N3CCC4(CC3)CCN(c3ccncc3)CC4)cc21)S(=O)(=O)c1ccc(Cl)cc1Cl (stereo not drawn) [IND_CC-324, 2,4-Dichloro-N-methyl-N-[6-(9-pyridin-4-yl-3,9-diazaspiro[5.5]undecane-3-carbonyl)-2,3-dihydro-1H-inden-1-yl]-benzenesulfonic acid amide]
94 | CC1(C)CC(NS(=O)(=O)c2ccc(C(F)(F)F)cc2Cl)c2cc(C(=O)N3CCC4(CC3)CCN(c3ccncc3)CC4)ccc21 (stereo not drawn) [IND_CC-331, 2-Chloro-N-[3,3-dimethyl-6-(3-pyridin-4-yl-3,9-diazaspiro[5.5]undecane-9-carbonyl)-1,2-dihydro-inden-1-yl]-4-(trifluoromethyl)-benzenesulfonic acid amide]

Reference: patent US8455475B2 (Gruenenthal GmbH, priority 2009, dated 2013)
